ChEMBL document CHEMBL3745647, “Design, synthesis and biological evaluation of pyrazolyl-nitroimidazole derivatives as potential EGFR/HER-2 kinase inhibitors” (Bioorg Med Chem Lett, 2016)

Tested on: HepG2
Experiment: Antiproliferative activity against human HepG2 cells after 12 hrs by MTT assay
Type: functional, cell-based
Conditions: HepG2, 12 h

SMILES | IC50 [µM]
CC(=O)N1N=C(c2ccc(F)cc2)CC1c1ccc(C(=O)OC(C)Cn2c([N+](=O)[O-])cnc2C)cc1 (configuration not stated) | 8.89
CC(=O)N1N=C(c2ccc(I)cc2)CC1c1ccc(C(=O)OCCn2c([N+](=O)[O-])cnc2C)cc1 (configuration not stated) | 6.28
CC(=O)N1N=C(c2ccc(Cl)cc2)CC1c1ccc(C(=O)OC(C)Cn2c([N+](=O)[O-])cnc2C)cc1 (configuration not stated) | 12.2
CC(=O)N1N=C(c2ccc(I)cc2)CC1c1ccc(C(=O)OC(C)Cn2c([N+](=O)[O-])cnc2C)cc1 (configuration not stated) | 9.98
COc1ccc(C2=NN(C(C)=O)C(c3ccc(C(=O)OCCn4c([N+](=O)[O-])cnc4C)cc3)C2)cc1 (configuration not stated) | 15.8
COc1ccc(C2=NN(C(C)=O)C(c3ccc(C(=O)OC(C)Cn4c([N+](=O)[O-])cnc4C)cc3)C2)cc1 (configuration not stated) | 25.2
CC(=O)N1N=C(c2ccc(Br)cc2)CC1c1ccc(C(=O)OC(C)Cn2c([N+](=O)[O-])cnc2C)cc1 (configuration not stated) | 9.02
CC(=O)N1N=C(c2ccc(C)cc2)CC1c1ccc(C(=O)OCCn2c([N+](=O)[O-])cnc2C)cc1 (configuration not stated) | 50.2
CCOc1ccc(C2=NN(C(C)=O)C(c3ccc(C(=O)OC(C)Cn4c([N+](=O)[O-])cnc4C)cc3)C2)cc1 (configuration not stated) | 38.8
CC(=O)N1N=C(c2ccccc2)CC1c1ccc(C(=O)OCCn2c([N+](=O)[O-])cnc2C)cc1 (configuration not stated) | 42.2
CC(=O)N1N=C(c2ccc(Br)cc2)CC1c1ccc(C(=O)OCCn2c([N+](=O)[O-])cnc2C)cc1 (configuration not stated) | 3.82

Molecular target: Epidermal growth factor receptor (Homo sapiens, UniProt P00533)
Experiment: Inhibition of His-tagged EGFR cytoplasmic domain (645-1186 aa) (unknown origin) assessed as inhibition of autophosphorylation by TR-fluorometry
Conditions: read-out: IC50

Chain of Epidermal growth factor receptor (P00533 whole entry, the tested form may be a part): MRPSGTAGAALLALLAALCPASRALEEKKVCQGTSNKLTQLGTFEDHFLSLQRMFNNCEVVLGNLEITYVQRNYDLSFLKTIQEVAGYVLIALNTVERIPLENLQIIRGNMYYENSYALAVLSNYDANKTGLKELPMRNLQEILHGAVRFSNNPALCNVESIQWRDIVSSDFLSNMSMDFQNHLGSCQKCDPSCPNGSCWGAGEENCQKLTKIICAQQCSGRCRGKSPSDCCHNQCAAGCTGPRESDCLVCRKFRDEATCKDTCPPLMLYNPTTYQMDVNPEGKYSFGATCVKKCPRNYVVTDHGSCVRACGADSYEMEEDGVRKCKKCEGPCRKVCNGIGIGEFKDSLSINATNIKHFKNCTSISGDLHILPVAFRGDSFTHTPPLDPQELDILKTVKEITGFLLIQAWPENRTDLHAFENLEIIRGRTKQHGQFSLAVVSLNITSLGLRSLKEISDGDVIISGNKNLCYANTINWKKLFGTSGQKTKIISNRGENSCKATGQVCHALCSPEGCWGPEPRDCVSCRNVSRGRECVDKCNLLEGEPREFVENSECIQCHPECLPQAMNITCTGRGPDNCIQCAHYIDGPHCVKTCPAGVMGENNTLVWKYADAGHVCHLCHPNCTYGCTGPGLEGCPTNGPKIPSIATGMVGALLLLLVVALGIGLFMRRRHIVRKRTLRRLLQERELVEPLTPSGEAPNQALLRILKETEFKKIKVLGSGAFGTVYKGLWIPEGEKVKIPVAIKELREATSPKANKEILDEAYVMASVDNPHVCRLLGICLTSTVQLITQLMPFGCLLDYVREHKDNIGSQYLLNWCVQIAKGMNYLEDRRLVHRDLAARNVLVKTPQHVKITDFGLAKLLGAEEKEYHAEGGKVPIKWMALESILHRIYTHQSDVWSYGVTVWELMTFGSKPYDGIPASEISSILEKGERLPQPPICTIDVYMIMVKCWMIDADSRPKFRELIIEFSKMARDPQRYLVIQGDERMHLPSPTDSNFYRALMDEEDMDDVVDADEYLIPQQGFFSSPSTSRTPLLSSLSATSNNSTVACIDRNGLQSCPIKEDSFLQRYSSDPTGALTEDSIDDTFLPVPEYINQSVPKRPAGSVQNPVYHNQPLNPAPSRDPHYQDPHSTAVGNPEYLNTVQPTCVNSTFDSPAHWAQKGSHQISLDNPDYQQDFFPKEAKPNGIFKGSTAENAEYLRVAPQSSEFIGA

SMILES | IC50 [µM]
CC(=O)N1N=C(c2ccc(F)cc2)CC1c1ccc(C(=O)OC(C)Cn2c([N+](=O)[O-])cnc2C)cc1 (configuration not stated) | 6.58
CC(=O)N1N=C(c2ccc(I)cc2)CC1c1ccc(C(=O)OCCn2c([N+](=O)[O-])cnc2C)cc1 (configuration not stated) | 1.26
CC(=O)N1N=C(c2ccc(Cl)cc2)CC1c1ccc(C(=O)OC(C)Cn2c([N+](=O)[O-])cnc2C)cc1 (configuration not stated) | 9.26
CC(=O)N1N=C(c2ccc(I)cc2)CC1c1ccc(C(=O)OC(C)Cn2c([N+](=O)[O-])cnc2C)cc1 (configuration not stated) | 10.7
COc1ccc(C2=NN(C(C)=O)C(c3ccc(C(=O)OCCn4c([N+](=O)[O-])cnc4C)cc3)C2)cc1 (configuration not stated) | 8.54
COc1ccc(C2=NN(C(C)=O)C(c3ccc(C(=O)OC(C)Cn4c([N+](=O)[O-])cnc4C)cc3)C2)cc1 (configuration not stated) | 21.3
CC(=O)N1N=C(c2ccc(Br)cc2)CC1c1ccc(C(=O)OC(C)Cn2c([N+](=O)[O-])cnc2C)cc1 (configuration not stated) | 5.96
CC(=O)N1N=C(c2ccc(C)cc2)CC1c1ccc(C(=O)OCCn2c([N+](=O)[O-])cnc2C)cc1 (configuration not stated) | 10.9
CCOc1ccc(C2=NN(C(C)=O)C(c3ccc(C(=O)OC(C)Cn4c([N+](=O)[O-])cnc4C)cc3)C2)cc1 (configuration not stated) | 26.9
CC(=O)N1N=C(c2ccccc2)CC1c1ccc(C(=O)OCCn2c([N+](=O)[O-])cnc2C)cc1 (configuration not stated) | 9.58
CC(=O)N1N=C(c2ccc(Br)cc2)CC1c1ccc(C(=O)OCCn2c([N+](=O)[O-])cnc2C)cc1 (configuration not stated) | 4.13

Same assay, conditions: read-out: pIC50 (converted)

SMILES | IC50 [µM]
CC(=O)N1N=C(c2ccc(F)cc2)CC1c1ccc(C(=O)OC(C)Cn2c([N+](=O)[O-])cnc2C)cc1 (configuration not stated) | 6.59
CC(=O)N1N=C(c2ccc(I)cc2)CC1c1ccc(C(=O)OCCn2c([N+](=O)[O-])cnc2C)cc1 (configuration not stated) | 1.26
CC(=O)N1N=C(c2ccc(Cl)cc2)CC1c1ccc(C(=O)OC(C)Cn2c([N+](=O)[O-])cnc2C)cc1 (configuration not stated) | 9.27
CC(=O)N1N=C(c2ccc(I)cc2)CC1c1ccc(C(=O)OC(C)Cn2c([N+](=O)[O-])cnc2C)cc1 (configuration not stated) | 10.7
COc1ccc(C2=NN(C(C)=O)C(c3ccc(C(=O)OCCn4c([N+](=O)[O-])cnc4C)cc3)C2)cc1 (configuration not stated) | 8.55
COc1ccc(C2=NN(C(C)=O)C(c3ccc(C(=O)OC(C)Cn4c([N+](=O)[O-])cnc4C)cc3)C2)cc1 (configuration not stated) | 21.3
CC(=O)N1N=C(c2ccc(Br)cc2)CC1c1ccc(C(=O)OC(C)Cn2c([N+](=O)[O-])cnc2C)cc1 (configuration not stated) | 5.97
CC(=O)N1N=C(c2ccc(C)cc2)CC1c1ccc(C(=O)OCCn2c([N+](=O)[O-])cnc2C)cc1 (configuration not stated) | 10.9
CCOc1ccc(C2=NN(C(C)=O)C(c3ccc(C(=O)OC(C)Cn4c([N+](=O)[O-])cnc4C)cc3)C2)cc1 (configuration not stated) | 27
CC(=O)N1N=C(c2ccccc2)CC1c1ccc(C(=O)OCCn2c([N+](=O)[O-])cnc2C)cc1 (configuration not stated) | 9.59
CC(=O)N1N=C(c2ccc(Br)cc2)CC1c1ccc(C(=O)OCCn2c([N+](=O)[O-])cnc2C)cc1 (configuration not stated) | 4.13

Tested on: HeLa
Experiment: Antiproliferative activity against human HeLa cells after 12 hrs by MTT assay
Type: functional, cell-based
Conditions: not given

SMILES | IC50 [µM]
CC(=O)N1N=C(c2ccc(F)cc2)CC1c1ccc(C(=O)OC(C)Cn2c([N+](=O)[O-])cnc2C)cc1 (configuration not stated) | 7.42
CC(=O)N1N=C(c2ccc(I)cc2)CC1c1ccc(C(=O)OCCn2c([N+](=O)[O-])cnc2C)cc1 (configuration not stated) | 7.53
CC(=O)N1N=C(c2ccc(Cl)cc2)CC1c1ccc(C(=O)OC(C)Cn2c([N+](=O)[O-])cnc2C)cc1 (configuration not stated) | 15.6
CC(=O)N1N=C(c2ccc(I)cc2)CC1c1ccc(C(=O)OC(C)Cn2c([N+](=O)[O-])cnc2C)cc1 (configuration not stated) | 25.6
COc1ccc(C2=NN(C(C)=O)C(c3ccc(C(=O)OCCn4c([N+](=O)[O-])cnc4C)cc3)C2)cc1 (configuration not stated) | 27.9
COc1ccc(C2=NN(C(C)=O)C(c3ccc(C(=O)OC(C)Cn4c([N+](=O)[O-])cnc4C)cc3)C2)cc1 (configuration not stated) | 35.1
CC(=O)N1N=C(c2ccc(Br)cc2)CC1c1ccc(C(=O)OC(C)Cn2c([N+](=O)[O-])cnc2C)cc1 (configuration not stated) | 11.8
CC(=O)N1N=C(c2ccc(C)cc2)CC1c1ccc(C(=O)OCCn2c([N+](=O)[O-])cnc2C)cc1 (configuration not stated) | 76.8
CCOc1ccc(C2=NN(C(C)=O)C(c3ccc(C(=O)OC(C)Cn4c([N+](=O)[O-])cnc4C)cc3)C2)cc1 (configuration not stated) | 47.6
CC(=O)N1N=C(c2ccccc2)CC1c1ccc(C(=O)OCCn2c([N+](=O)[O-])cnc2C)cc1 (configuration not stated) | 48.8
CC(=O)N1N=C(c2ccc(Br)cc2)CC1c1ccc(C(=O)OCCn2c([N+](=O)[O-])cnc2C)cc1 (configuration not stated) | 2.82

Tested on: MCF7
Experiment: Antiproliferative activity against human MCF7 cells after 12 hrs by MTT assay
Type: functional, cell-based
Conditions: MCF7, 12 h

SMILES | IC50 [µM]
CC(=O)N1N=C(c2ccc(F)cc2)CC1c1ccc(C(=O)OC(C)Cn2c([N+](=O)[O-])cnc2C)cc1 (configuration not stated) | 5.21
CC(=O)N1N=C(c2ccc(I)cc2)CC1c1ccc(C(=O)OCCn2c([N+](=O)[O-])cnc2C)cc1 (configuration not stated) | 4.85
CC(=O)N1N=C(c2ccc(Cl)cc2)CC1c1ccc(C(=O)OC(C)Cn2c([N+](=O)[O-])cnc2C)cc1 (configuration not stated) | 8.82
CC(=O)N1N=C(c2ccc(I)cc2)CC1c1ccc(C(=O)OC(C)Cn2c([N+](=O)[O-])cnc2C)cc1 (configuration not stated) | 9.77
COc1ccc(C2=NN(C(C)=O)C(c3ccc(C(=O)OCCn4c([N+](=O)[O-])cnc4C)cc3)C2)cc1 (configuration not stated) | 30.2
COc1ccc(C2=NN(C(C)=O)C(c3ccc(C(=O)OC(C)Cn4c([N+](=O)[O-])cnc4C)cc3)C2)cc1 (configuration not stated) | 28
CC(=O)N1N=C(c2ccc(Br)cc2)CC1c1ccc(C(=O)OC(C)Cn2c([N+](=O)[O-])cnc2C)cc1 (configuration not stated) | 8.92
CC(=O)N1N=C(c2ccc(C)cc2)CC1c1ccc(C(=O)OCCn2c([N+](=O)[O-])cnc2C)cc1 (configuration not stated) | 70.7
CCOc1ccc(C2=NN(C(C)=O)C(c3ccc(C(=O)OC(C)Cn4c([N+](=O)[O-])cnc4C)cc3)C2)cc1 (configuration not stated) | 40.6
CC(=O)N1N=C(c2ccccc2)CC1c1ccc(C(=O)OCCn2c([N+](=O)[O-])cnc2C)cc1 (configuration not stated) | 58.2
CC(=O)N1N=C(c2ccc(Br)cc2)CC1c1ccc(C(=O)OCCn2c([N+](=O)[O-])cnc2C)cc1 (configuration not stated) | 5.56

Tested on: not listed separately
Experiment: Antiproliferative activity against mouse B16F10 cells after 12 hrs by MTT assay
Type: functional, cell-based
Conditions: B16-F10, 12 h

SMILES | IC50 [µM]
CC(=O)N1N=C(c2ccc(F)cc2)CC1c1ccc(C(=O)OC(C)Cn2c([N+](=O)[O-])cnc2C)cc1 (configuration not stated) | 15.5
CC(=O)N1N=C(c2ccc(I)cc2)CC1c1ccc(C(=O)OCCn2c([N+](=O)[O-])cnc2C)cc1 (configuration not stated) | 11.8
CC(=O)N1N=C(c2ccc(Cl)cc2)CC1c1ccc(C(=O)OC(C)Cn2c([N+](=O)[O-])cnc2C)cc1 (configuration not stated) | 22.2
CC(=O)N1N=C(c2ccc(I)cc2)CC1c1ccc(C(=O)OC(C)Cn2c([N+](=O)[O-])cnc2C)cc1 (configuration not stated) | 19.1
COc1ccc(C2=NN(C(C)=O)C(c3ccc(C(=O)OCCn4c([N+](=O)[O-])cnc4C)cc3)C2)cc1 (configuration not stated) | 36.2
COc1ccc(C2=NN(C(C)=O)C(c3ccc(C(=O)OC(C)Cn4c([N+](=O)[O-])cnc4C)cc3)C2)cc1 (configuration not stated) | 40.6
CC(=O)N1N=C(c2ccc(Br)cc2)CC1c1ccc(C(=O)OC(C)Cn2c([N+](=O)[O-])cnc2C)cc1 (configuration not stated) | 10.8
CC(=O)N1N=C(c2ccc(C)cc2)CC1c1ccc(C(=O)OCCn2c([N+](=O)[O-])cnc2C)cc1 (configuration not stated) | > 100
CCOc1ccc(C2=NN(C(C)=O)C(c3ccc(C(=O)OC(C)Cn4c([N+](=O)[O-])cnc4C)cc3)C2)cc1 (configuration not stated) | 46.6
CC(=O)N1N=C(c2ccccc2)CC1c1ccc(C(=O)OCCn2c([N+](=O)[O-])cnc2C)cc1 (configuration not stated) | 62.7
CC(=O)N1N=C(c2ccc(Br)cc2)CC1c1ccc(C(=O)OCCn2c([N+](=O)[O-])cnc2C)cc1 (configuration not stated) | 13.1

Molecular target: Receptor tyrosine-protein kinase erbB-2 (Homo sapiens, UniProt P04626)
Experiment: Inhibition of His-tagged human HER-2 cytoplasmic domain (676-1245 aa) (unknown origin) assessed as inhibition of autophosphorylation by TR-fluorometry
Conditions: not given

Chain of Receptor tyrosine-protein kinase erbB-2 (P04626 whole entry, the tested form may be a part): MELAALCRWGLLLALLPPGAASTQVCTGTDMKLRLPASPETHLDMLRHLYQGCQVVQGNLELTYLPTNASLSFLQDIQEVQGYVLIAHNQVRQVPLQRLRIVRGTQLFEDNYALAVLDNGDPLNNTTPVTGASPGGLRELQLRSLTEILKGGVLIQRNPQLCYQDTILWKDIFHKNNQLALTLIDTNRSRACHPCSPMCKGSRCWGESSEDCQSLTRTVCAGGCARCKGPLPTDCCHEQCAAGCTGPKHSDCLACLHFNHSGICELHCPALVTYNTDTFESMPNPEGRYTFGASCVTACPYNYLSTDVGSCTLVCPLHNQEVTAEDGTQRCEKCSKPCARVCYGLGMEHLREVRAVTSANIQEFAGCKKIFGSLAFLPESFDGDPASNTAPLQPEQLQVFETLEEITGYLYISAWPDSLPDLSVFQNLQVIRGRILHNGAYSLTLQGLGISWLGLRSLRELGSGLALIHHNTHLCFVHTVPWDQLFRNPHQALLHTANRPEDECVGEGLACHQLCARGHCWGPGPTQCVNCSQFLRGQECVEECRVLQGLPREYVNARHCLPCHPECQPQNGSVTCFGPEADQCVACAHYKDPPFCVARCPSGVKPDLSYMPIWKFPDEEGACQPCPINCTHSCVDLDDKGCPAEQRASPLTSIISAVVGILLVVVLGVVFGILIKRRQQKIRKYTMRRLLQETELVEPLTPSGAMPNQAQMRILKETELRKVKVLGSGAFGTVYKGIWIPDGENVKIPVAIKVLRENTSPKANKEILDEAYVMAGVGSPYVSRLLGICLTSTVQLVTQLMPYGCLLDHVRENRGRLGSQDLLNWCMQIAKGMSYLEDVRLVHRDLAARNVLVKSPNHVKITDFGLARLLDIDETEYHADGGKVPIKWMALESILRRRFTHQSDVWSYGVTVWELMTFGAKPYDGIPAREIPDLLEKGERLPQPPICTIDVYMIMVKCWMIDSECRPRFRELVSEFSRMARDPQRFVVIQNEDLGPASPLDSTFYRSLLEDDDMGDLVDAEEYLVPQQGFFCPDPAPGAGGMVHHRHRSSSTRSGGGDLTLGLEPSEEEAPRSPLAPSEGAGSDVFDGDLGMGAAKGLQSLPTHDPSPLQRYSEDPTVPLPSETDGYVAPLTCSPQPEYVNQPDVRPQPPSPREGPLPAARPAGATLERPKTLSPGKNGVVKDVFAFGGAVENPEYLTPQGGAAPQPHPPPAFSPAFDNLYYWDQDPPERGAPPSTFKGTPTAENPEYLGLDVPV

SMILES | IC50 [µM]
CC(=O)N1N=C(c2ccc(F)cc2)CC1c1ccc(C(=O)OC(C)Cn2c([N+](=O)[O-])cnc2C)cc1 (configuration not stated) | 8.54
CC(=O)N1N=C(c2ccc(I)cc2)CC1c1ccc(C(=O)OCCn2c([N+](=O)[O-])cnc2C)cc1 (configuration not stated) | 2.75
CC(=O)N1N=C(c2ccc(Cl)cc2)CC1c1ccc(C(=O)OC(C)Cn2c([N+](=O)[O-])cnc2C)cc1 (configuration not stated) | 9.96
CC(=O)N1N=C(c2ccc(I)cc2)CC1c1ccc(C(=O)OC(C)Cn2c([N+](=O)[O-])cnc2C)cc1 (configuration not stated) | 12.7
COc1ccc(C2=NN(C(C)=O)C(c3ccc(C(=O)OCCn4c([N+](=O)[O-])cnc4C)cc3)C2)cc1 (configuration not stated) | 17.3
COc1ccc(C2=NN(C(C)=O)C(c3ccc(C(=O)OC(C)Cn4c([N+](=O)[O-])cnc4C)cc3)C2)cc1 (configuration not stated) | 12
CC(=O)N1N=C(c2ccc(Br)cc2)CC1c1ccc(C(=O)OC(C)Cn2c([N+](=O)[O-])cnc2C)cc1 (configuration not stated) | 8.27
CC(=O)N1N=C(c2ccc(C)cc2)CC1c1ccc(C(=O)OCCn2c([N+](=O)[O-])cnc2C)cc1 (configuration not stated) | 13.2
CCOc1ccc(C2=NN(C(C)=O)C(c3ccc(C(=O)OC(C)Cn4c([N+](=O)[O-])cnc4C)cc3)C2)cc1 (configuration not stated) | 18.1
CC(=O)N1N=C(c2ccccc2)CC1c1ccc(C(=O)OCCn2c([N+](=O)[O-])cnc2C)cc1 (configuration not stated) | 14
CC(=O)N1N=C(c2ccc(Br)cc2)CC1c1ccc(C(=O)OCCn2c([N+](=O)[O-])cnc2C)cc1 (configuration not stated) | 3.45
